Test results reported in the NIST ThermoML archive (doi:10.1021/je060271a).
Where “and” joins values, the source holds several entries; their conditions need not be identical. Identical values can stand only once.

Settings: 283.15 K, Liquid, Vibrating tube method

CCCCCC(=O)OCC(COC(=O)CCCCC)(COC(=O)CCCCC)COC(=O)CCCCC [pentaerythritol tetrahexanoate]
Settings	mass density
5731.2 kPa	1007.5 kg/m3
5738.3 kPa	1007.6 kg/m3
5746.2 kPa	1007.4 kg/m3
5753.3 kPa	1007.5 kg/m3
5760 kPa	1007.4 kg/m3
5767.3 kPa	1007.5 kg/m3
5775.5 kPa	1007.5 kg/m3
5783.9 kPa	1007.6 kg/m3
5790.7 kPa	1007.4 kg/m3
5797.8 kPa	1007.5 kg/m3
5804.7 kPa	1007.5 kg/m3
5812.8 kPa	1007.6 kg/m3
5819.9 kPa	1007.5 kg/m3
5826.8 kPa	1007.5 kg/m3
5833.7 kPa	1007.4 kg/m3
5842.2 kPa	1007.5 kg/m3
5849.3 kPa	1007.5 kg/m3
5856.6 kPa	1007.5 kg/m3
5863.6 kPa	1007.7 kg/m3
5872 kPa	1007.5 kg/m3
5878.9 kPa	1007.5 kg/m3
5885.8 kPa	1007.5 kg/m3
5894.4 kPa	1007.7 kg/m3
5901.3 kPa	1007.5 kg/m3
5908.3 kPa	1007.6 kg/m3
5915.7 kPa	1007.5 kg/m3
5924.3 kPa	1007.6 kg/m3
5930 kPa	1007.7 kg/m3
5935.7 kPa	1007.7 kg/m3
5942.8 kPa	1007.6 kg/m3
5953 kPa	1007.5 kg/m3
5960.1 kPa	1007.6 kg/m3
5968.6 kPa	1007.6 kg/m3
5976.4 kPa	1007.6 kg/m3
5984.7 kPa	1007.6 kg/m3
5991.9 kPa	1007.6 kg/m3
5999.2 kPa	1007.7 kg/m3
6006.6 kPa	1007.7 kg/m3
6015.4 kPa	1007.6 kg/m3
6022.9 kPa	1007.7 kg/m3
6030.1 kPa	1007.6 kg/m3
6038.8 kPa	1007.8 kg/m3
6046 kPa	1007.6 kg/m3
6053.1 kPa	1007.6 kg/m3
6061.9 kPa	1007.7 kg/m3
6069.2 kPa	1007.6 kg/m3
6076.6 kPa	1007.8 kg/m3
6084.1 kPa	1007.7 kg/m3
6092.7 kPa	1007.8 kg/m3
6100.3 kPa	1007.7 kg/m3
6107.6 kPa	1007.6 kg/m3
6115.2 kPa	1007.6 kg/m3
6124 kPa	1007.8 kg/m3
6131.6 kPa	1007.7 kg/m3
6139 kPa	1007.7 kg/m3
6146.6 kPa	1007.7 kg/m3
6155.4 kPa	1007.7 kg/m3
6163 kPa	1007.7 kg/m3
6170.1 kPa	1007.8 kg/m3
6179.1 kPa	1007.7 kg/m3
6186.9 kPa	1007.6 kg/m3
6194.5 kPa	1007.8 kg/m3
6202.1 kPa	1007.8 kg/m3
6209.7 kPa	1007.9 kg/m3
6218.9 kPa	1007.8 kg/m3
6226.1 kPa	1007.8 kg/m3
6233.7 kPa	1007.8 kg/m3
6242.7 kPa	1007.8 kg/m3
6250.3 kPa	1007.9 kg/m3
6257.9 kPa	1007.8 kg/m3
6265.5 kPa	1007.8 kg/m3
6274.9 kPa	1007.7 kg/m3
6282.3 kPa	1007.9 kg/m3
6290.1 kPa	1007.8 kg/m3
6299.1 kPa	1007.7 kg/m3
6306.5 kPa	1007.9 kg/m3
6314.3 kPa	1007.8 kg/m3
6323.1 kPa	1007.8 kg/m3
6330.4 kPa	1007.8 kg/m3
6338.1 kPa	1007.8 kg/m3
6346.1 kPa	1007.8 kg/m3
6355.4 kPa	1007.9 kg/m3
6362.3 kPa	1007.8 kg/m3
6369.9 kPa	1007.8 kg/m3
6377.7 kPa	1007.8 kg/m3
6386.6 kPa	1007.9 kg/m3
6394.2 kPa	1007.9 kg/m3
6401.7 kPa	1007.9 kg/m3
6409.5 kPa	1007.9 kg/m3
6418.4 kPa	1007.9 kg/m3
6426 kPa	1007.9 kg/m3
6433.3 kPa	1007.9 kg/m3
6442.5 kPa	1007.9 kg/m3
6450.4 kPa	1007.9 kg/m3
6458.4 kPa	1007.9 kg/m3
6466.9 kPa	1007.9 kg/m3
6474.6 kPa	1007.9 kg/m3
6481.9 kPa	1008 kg/m3
6491.1 kPa	1007.8 kg/m3
6498.3 kPa	1008 kg/m3
6505.6 kPa	1008 kg/m3
6514.4 kPa	1007.8 kg/m3
6522 kPa	1007.9 kg/m3
6529.2 kPa	1007.9 kg/m3
6536.7 kPa	1008 kg/m3
6545 kPa	1008 kg/m3
6552.2 kPa	1007.9 kg/m3
6559.5 kPa	1008.1 kg/m3
6566.4 kPa	1007.9 kg/m3
6573.6 kPa	1008 kg/m3
6578.7 kPa	1007.9 kg/m3
6583 kPa	1008 kg/m3
6587.1 kPa	1008 kg/m3
6592.1 kPa	1007.9 kg/m3
6596.3 kPa	1008 kg/m3
6600.4 kPa	1008.1 kg/m3
6605.4 kPa	1007.9 kg/m3
6609.2 kPa	1007.9 kg/m3
6613.4 kPa	1007.9 kg/m3
6635.7 kPa	1008 kg/m3
6640 kPa	1008 kg/m3
6644.1 kPa	1008.1 kg/m3
6649 kPa	1008 kg/m3
6674.5 kPa	1008 kg/m3
6679.6 kPa	1008 kg/m3
6683.5 kPa	1008.1 kg/m3
6687.7 kPa	1008.1 kg/m3
6692 kPa	1008.1 kg/m3
6696.5 kPa	1008 kg/m3
6700.6 kPa	1008 kg/m3
6704.6 kPa	1008 kg/m3
6708.6 kPa	1008 kg/m3
6713.2 kPa	1008 kg/m3
6717.2 kPa	1008.1 kg/m3
6759.5 kPa	1008.1 kg/m3
6769.5 kPa	1008.2 kg/m3 and 1008.1 kg/m3
6769.7 kPa	1008.1 kg/m3 and 1008 kg/m3
6769.8 kPa	1008 kg/m3 and 1008.2 kg/m3 and 1008.1 kg/m3
6770 kPa	1008.1 kg/m3
6770.2 kPa	1008 kg/m3 and 1008.1 kg/m3
6770.3 kPa	1008.1 kg/m3
6770.4 kPa	1008.1 kg/m3
6770.5 kPa	1008.1 kg/m3
6770.7 kPa	1008 kg/m3
6770.9 kPa	1008 kg/m3 and 1008.1 kg/m3
